Test results: patent US8569344B2, “N-piperidinyl acetamide derivatives as calcium channel blockers” (Zalicus Pharmaceuticals Ltd., priority 2008, dated 2013)

Target: T1, human α1H T-type channels (Homo sapiens, UniProt O95180)
T1 construct: expressed in transfected cells; host or cells: HEK 293
Test: T-type calcium channel block, whole cell patch clamp in HEK cells (α1H)
Assay type: cell-based
Details: HEK cells, patch clamp, mainly non-inactivated protocol; values above 10 μM shown as 10 μM; read-out: T-type Calcium Channel Block α1H IC50
Method: T-type calcium channel blocking activity was assayed in human embryonic kidney cells, HEK 293, stably transfected with the T-type calcium channel subunits. Briefly, cells were cultured in Dulbecco's modified eagle medium (DMEM) supplemented with 10% fetal bovine serum, 200 U/ml penicillin and 0.2 mg/ml streptomycin at 37° C. with 5% CO2. At 85% confluency cells were split with 0.25% trypsin/1 mM EDTA and plated at 10% confluency on glass coverslips. […] Fresh DMEM was supplied and the cells transferred to 28° C./5% CO2. Cells were incubated for 1 to 2 days prior to whole cell recording.
Standard patch-clamp techniques were employed to identify blockers of T-type currents. Briefly, previously described HEK cell lines stably expressing human α1G, α1H and α1I T-type channels were used for all the recordings (passage #: 4-20, 37° C., 5% CO2). Whole cell patch clamp experiments were performed using an Axopatch 200B amplifier (Axon Instruments, Burlingame, Calif.) linked to a personal computer equipped with pCLAMP software. Data were analyzed using Clampfit (Axon Instruments) and SigmaPlot 4.0 (Jandel Scientific). To obtain T-type currents, plastic dishes containing semi-confluent cells were positioned on the stage of a ZEISS AXIOVERT S100 microscope after replacing the culture medium with external solution (see below). Whole-cell patches were obtained using pipettes (borosilicate glass with filament, O.D.: 1.5 mm, I.D.: 0.86 mm, 10 cm length), fabricated on a SUTTER P-97 puller with resistance values of ˜5 MΩ (see below for internal solution).
In the non-inactivating protocol, the holding potential is set at −110 mV and with a pre-pulse at −100 mV for 1 second prior to the test pulse at −40 mV for 50 ms.
Test compounds were dissolved in external solution, 0.1-0.01% DMSO. After ˜10 min rest, they were applied by gravity close to the cell using a WPI microfil tubing. The “non-inactivated” pre-pulse was used to examine the resting block of a compound. The “inactivated” protocol was employed to study voltage-dependent block. […] Values are shown in μM and values above 10 μM are simply represented as 10 μM.

T1 sequence (O95180 whole entry): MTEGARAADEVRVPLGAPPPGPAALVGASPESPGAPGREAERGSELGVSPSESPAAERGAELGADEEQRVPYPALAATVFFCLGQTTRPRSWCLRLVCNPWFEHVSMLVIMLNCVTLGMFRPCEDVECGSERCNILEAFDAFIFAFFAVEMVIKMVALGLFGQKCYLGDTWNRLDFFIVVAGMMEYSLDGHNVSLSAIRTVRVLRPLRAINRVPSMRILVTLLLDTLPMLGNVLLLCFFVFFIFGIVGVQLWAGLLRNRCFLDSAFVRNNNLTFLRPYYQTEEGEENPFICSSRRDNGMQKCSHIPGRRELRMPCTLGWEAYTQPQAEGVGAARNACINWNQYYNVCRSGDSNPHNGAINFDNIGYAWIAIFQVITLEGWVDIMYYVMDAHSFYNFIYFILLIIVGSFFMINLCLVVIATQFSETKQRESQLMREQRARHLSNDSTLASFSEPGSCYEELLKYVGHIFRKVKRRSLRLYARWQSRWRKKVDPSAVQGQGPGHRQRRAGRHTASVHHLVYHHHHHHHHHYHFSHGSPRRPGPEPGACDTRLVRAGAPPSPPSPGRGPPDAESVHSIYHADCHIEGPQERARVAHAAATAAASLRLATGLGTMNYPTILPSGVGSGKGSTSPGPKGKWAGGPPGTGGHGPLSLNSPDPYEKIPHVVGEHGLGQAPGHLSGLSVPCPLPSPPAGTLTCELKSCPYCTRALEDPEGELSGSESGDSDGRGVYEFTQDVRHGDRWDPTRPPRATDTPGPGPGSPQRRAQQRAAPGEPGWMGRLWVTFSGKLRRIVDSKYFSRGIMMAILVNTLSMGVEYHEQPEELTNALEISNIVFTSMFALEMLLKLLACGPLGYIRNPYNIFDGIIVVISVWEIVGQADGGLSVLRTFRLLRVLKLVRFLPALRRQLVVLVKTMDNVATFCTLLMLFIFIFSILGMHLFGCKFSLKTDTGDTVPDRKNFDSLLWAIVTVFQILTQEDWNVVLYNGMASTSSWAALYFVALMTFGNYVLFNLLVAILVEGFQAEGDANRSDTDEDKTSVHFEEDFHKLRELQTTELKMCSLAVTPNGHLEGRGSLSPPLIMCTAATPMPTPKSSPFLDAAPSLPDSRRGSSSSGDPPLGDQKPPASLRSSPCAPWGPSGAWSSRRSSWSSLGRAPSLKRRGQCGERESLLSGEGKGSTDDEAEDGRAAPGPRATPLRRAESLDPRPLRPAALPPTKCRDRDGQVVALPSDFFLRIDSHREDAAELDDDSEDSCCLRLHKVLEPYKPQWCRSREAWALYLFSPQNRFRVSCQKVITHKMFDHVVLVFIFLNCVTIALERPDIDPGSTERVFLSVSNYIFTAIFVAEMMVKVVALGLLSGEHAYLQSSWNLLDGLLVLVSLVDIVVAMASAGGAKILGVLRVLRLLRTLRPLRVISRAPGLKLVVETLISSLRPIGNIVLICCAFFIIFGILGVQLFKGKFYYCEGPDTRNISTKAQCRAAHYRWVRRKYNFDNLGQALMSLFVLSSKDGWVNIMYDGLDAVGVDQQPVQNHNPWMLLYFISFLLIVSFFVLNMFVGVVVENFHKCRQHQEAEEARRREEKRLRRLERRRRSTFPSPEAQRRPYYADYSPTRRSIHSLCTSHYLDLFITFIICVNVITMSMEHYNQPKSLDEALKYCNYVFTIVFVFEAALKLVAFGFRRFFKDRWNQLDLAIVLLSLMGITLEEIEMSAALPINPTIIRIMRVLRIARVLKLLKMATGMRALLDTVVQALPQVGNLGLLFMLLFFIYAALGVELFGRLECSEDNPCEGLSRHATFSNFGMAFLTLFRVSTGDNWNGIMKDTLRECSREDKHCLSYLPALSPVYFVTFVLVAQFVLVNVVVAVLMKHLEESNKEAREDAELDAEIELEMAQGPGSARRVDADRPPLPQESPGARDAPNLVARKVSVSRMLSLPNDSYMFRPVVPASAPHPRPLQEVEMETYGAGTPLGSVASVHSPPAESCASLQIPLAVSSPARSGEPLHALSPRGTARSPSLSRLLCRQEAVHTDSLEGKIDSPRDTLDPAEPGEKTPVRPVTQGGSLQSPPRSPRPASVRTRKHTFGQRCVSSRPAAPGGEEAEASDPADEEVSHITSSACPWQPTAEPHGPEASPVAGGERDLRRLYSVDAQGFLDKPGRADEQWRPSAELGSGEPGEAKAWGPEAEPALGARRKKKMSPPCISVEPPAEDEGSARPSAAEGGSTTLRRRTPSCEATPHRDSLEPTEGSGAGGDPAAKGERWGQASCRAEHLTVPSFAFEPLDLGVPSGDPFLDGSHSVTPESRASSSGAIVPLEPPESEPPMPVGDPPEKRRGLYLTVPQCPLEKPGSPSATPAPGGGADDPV

Which IC50 does the source give for CC(C)(CN1CCC(CNC(=O)c2cc(F)cc(C(F)(F)F)c2)CC1)NS(=O)(=O)C1CC1 [Compound 8, N-((1-(2-(cyclopropanesulfonamido)-2-methylpropyl)piperidin-4-yl)methyl)-3-fluoro-5-(trifluoromethyl)benzamide] here?
The IC50 was 2420 nM.

Which IC50 does the source give for CC(C)CS(=O)(=O)NCCN1CCC(CNC(=O)c2cc(C(F)(F)F)cc(C(F)(F)F)c2)CC1 [Compound 27, N-((1-(2-(2-methylpropylsulfonamido)ethyl)piperidin-4-yl)methyl)-3,5-bis(trifluoromethyl)benzamide] here?
The IC50 was 190 nM.

How did the IC50 turn out when CCC(=O)NCCN1CCC(CNC(=O)c2cc(C(F)(F)F)cc(C(F)(F)F)c2)CC1 [Compound 58, N-((1-(2-propionamidoethyl)piperidin-4-yl)methyl)-3,5-bis(trifluoromethyl) benzamide] was run?
The IC50 was 4010 nM.

CC(C)(C)C(=O)NCCN1CCC(CNC(=O)c2cc(C(F)(F)F)cc(C(F)(F)F)c2)CC1 [Compound 60, N-((1-(2-pivalamidoethyl)piperidin-4-yl)methyl)-3,5-his(trifluoromethyl)benzamide] was tested. Which IC50 did it give?
Its IC50 is 220 nM.

CN1CCC(C(=O)NCCN2CCC(CNC(=O)c3cc(C(F)(F)F)cc(C(F)(F)F)c3)CC2)CC1 [Compound 61, N-(2-(4-((3,5-bis(trifluoromethyl)benzamido)methyl)piperidin-1-yl)ethyl)-1-methylpiperidin-4-carboxamide] was tested. Which IC50 did it give?
The IC50 was > 10000 nM.

For O=C(NCC1CCN(CCNC(=O)C2CCCC2)CC1)c1cc(C(F)(F)F)cc(C(F)(F)F)c1 [Compound 62, N-((1-(2-(cyclopentanecarboxamido)ethyl)piperidin-4-yl)methyl)-3,5-bis(trifluoromethyl)benzamide], which IC50 is on record?
Its IC50 is 230 nM.

Which IC50 does the source give for O=C(CC1CC1)NCCN1CCC(CNC(=O)c2cc(C(F)(F)F)cc(C(F)(F)F)c2)CC1 [Compound 63, N-((1-(2-(2-cyclopropylacetamido)ethyl)piperidin-4-yl)methyl)-3,5-bis(trifluoromethyl)benzamide] here?
Its IC50 is 430 nM.

C[C@H]1CC[C@H](C(=O)NCCN2CCC(CNC(=O)c3cc(C(F)(F)F)cc(C(F)(F)F)c3)CC2)CC1 [Compound 64, N-((1-(2-((1r,4r)-4-methylcyclohexanecarboxamido)ethyl)piperidin-4-yl)methyl)-3,5-bis(trifluoromethyl)benzamide] was tested. Which IC50 did it give?
Its IC50 is 200 nM.

With CC(C)(O)C(=O)NCCN1CCC(CNC(=O)c2cc(C(F)(F)F)cc(C(F)(F)F)c2)CC1 [Compound 65, N-((1-(2-(2-hydroxy-2-methylpropanamido)ethyl)piperidin-4-yl)methyl)-3,5-bis(trifluoromethyl) benzamide] as the compound, how does the IC50 read?
The IC50 was 6370 nM.

O=C(CCC(F)(F)F)NCCN1CCC(CNC(=O)c2cc(C(F)(F)F)cc(C(F)(F)F)c2)CC1 [Compound 66, N-((1-(2-(4,4,4-trifluorobutanamido)ethyl)piperidin-4-yl)methyl)-3,5-bis(trifluoromethyl) benzamide] was tested. Which IC50 did it give?
Its IC50 is 370 nM.

COCCC(=O)NCCN1CCC(CNC(=O)c2cc(C(F)(F)F)cc(C(F)(F)F)c2)CC1 [Compound 68, N-((1-(2-(3-methoxypropanamido)ethyl)piperidin-4-yl)methyl)-3,5-bis(trifluoromethyl) benzamide] was tested. Which IC50 did it give?
Its IC50 is 7560 nM.

Which IC50 does the source give for O=C(CN1CCC(CNC(=O)c2cc(C(F)(F)F)cc(C(F)(F)F)c2)CC1)NC1CCCC1 [Compound 92, N-((1-(2-(cyclopentylamino)-2-oxoethyl)piperidin-4-yl)methyl)-3,5-bis(trifluoromethyl)benzamide] here?
Its IC50 is 60 nM.

With CC1CCCCC1NC(=O)CN1CCC(CNC(=O)c2cc(C(F)(F)F)cc(C(F)(F)F)c2)CC1 (stereo not drawn) [Compound 93] as the compound, how does the IC50 read?
Its IC50 is 90 nM.

Which IC50 does the source give for O=C(CN1CCC(CNC(=O)c2cc(C(F)(F)F)cc(C(F)(F)F)c2)CC1)NC1CCCCC1 [Compound 94, N-((1-(2-(cyclohexylamino)-2-oxoethyl)piperidin-4-yl)methyl)-3,5-bis(trifluoromethyl)benzamide] here?
Its IC50 is 60 nM.

O=C(CN1CCC(CNC(=O)c2cc(C(F)(F)F)cc(C(F)(F)F)c2)CC1)NC1CC1 [Compound 95, N-((1-(2-(cyclopropylamino)-2-oxoethyl)piperidin-4-yl)methyl)-3,5-bis(trifluoromethyl)benzamide] was tested. Which IC50 did it give?
The IC50 was > 10000 nM.

O=C(CN1CCC(CNC(=O)c2cc(C(F)(F)F)cc(C(F)(F)F)c2)CC1)N[C@H]1CC[C@H](O)CC1 [Compound 96, N-((1-(2-((1r,4r)-4-hydroxycyclo-hexylamino)-2-oxoethyl)piperidin-4-yl)methyl)-3,5-bis(trifluoromethyl) benzamide] was tested. Which IC50 did it give?
The IC50 was > 10000 nM.

For C[C@H]1CC[C@H](NC(=O)CN2CCC(CNC(=O)c3cc(C(F)(F)F)cc(C(F)(F)F)c3)CC2)CC1 [Compound 97, N-((1-(2-((1r,4r)-4-methylcyclo-hexylamino)-2-oxoethyl)piperidin-4-yl)methyl)-3,5-bis(trifluoromethyl) benzamide], which IC50 is on record?
The IC50 was 100 nM.

With O=C(NCC1CCN(CC(=O)N2CCCC(O)C2)CC1)c1cc(C(F)(F)F)cc(C(F)(F)F)c1 (stereo not drawn) [Compound 98, N-((1-(2-(3-hydroxypiperidin-1-yl)-2-oxoethyl)piperidin-4-yl)methyl)-3,5-bis(trifluoromethyl)benzamide] as the compound, how does the IC50 read?
Its IC50 is 3600 nM.

For CC1CCCN(C(=O)CN2CCC(CNC(=O)c3cc(C(F)(F)F)cc(C(F)(F)F)c3)CC2)C1 (stereo not drawn) [Compound 99, N-((1-(2-(3-methylpiperidin-1-yl)-2-oxoethyl)piperidin-4-yl)methyl)-3,5-bis(trifluoromethyl)benzamide], which IC50 is on record?
The IC50 was 210 nM.

CCC1CCCCN1C(=O)CN1CCC(CNC(=O)c2cc(C(F)(F)F)cc(C(F)(F)F)c2)CC1 (stereo not drawn) [Compound 100, N-((1-(2-(2-ethylpiperidin-1-yl)-2-oxoethyl)piperidin-4-yl)methyl)-3,5-bis(trifluoromethyl)benzamide] was tested. Which IC50 did it give?
Its IC50 is 100 nM.

For CN(C(=O)CN1CCC(CNC(=O)c2cc(C(F)(F)F)cc(C(F)(F)F)c2)CC1)C1CCCCC1 [Compound 101, N-((1-(2-(cyclohexyl(methyl)amino)-2-oxoethyl)piperidin-4-yl)methyl)-3,5-bis(trifluoromethyl)benzamide], which IC50 is on record?
Its IC50 is 140 nM.

O=C(NCC1CCN(CC(=O)N2CCC(O)CC2)CC1)c1cc(C(F)(F)F)cc(C(F)(F)F)c1 [Compound 102, N-((1-(2-(4-hydroxypiperidin-1-yl)-2-oxoethyl)piperidin-4-yl)methyl)-3,5-bis(trifluoromethyl)benzamide] was tested. Which IC50 did it give?
The IC50 was > 10000 nM.

For COC1CCN(C(=O)CN2CCC(CNC(=O)c3cc(C(F)(F)F)cc(C(F)(F)F)c3)CC2)CC1 [Compound 103, N-((1-(2-(4-methoxypiperidin-1-yl)-2-oxoethyl)piperidin-4-yl)methyl)-3,5-bis(trifluoromethyl)benzamide], which IC50 is on record?
The IC50 was 1210 nM.

C[C@@H]1CCCCN1C(=O)CN1CCC(CNC(=O)c2cc(C(F)(F)F)cc(C(F)(F)F)c2)CC1 [Compound 104, (R)-N-((1-(2-(2-methylpiperidin-1-yl)-2-oxoethyl)piperidin-4-yl)methyl)-3,5-bis(trifluoromethyl)benzamide] was tested. Which IC50 did it give?
Its IC50 is 140 nM.

With CCC1CCCN1C(=O)CN1CCC(CNC(=O)c2cc(C(F)(F)F)cc(C(F)(F)F)c2)CC1 (stereo not drawn) [Compound 105, N-((1-(2-(2-ethylpyrrolidin-1-yl)-2-oxoethyl)piperidin-4-yl)methyl)-3,5-bis(trifluoromethyl)benzamide] as the compound, how does the IC50 read?
The IC50 was 280 nM.

Which IC50 does the source give for O=C(NCC1CCN(CC(=O)N2CCC(CO)CC2)CC1)c1cc(C(F)(F)F)cc(C(F)(F)F)c1 [Compound 106, N-((1-(2-(4-(hydroxymethyl)piperidin-1-yl)-2-oxoethyl)piperidin-4-yl)methyl)-3,5-bis(trifluoromethyl)benzamide] here?
Its IC50 is 5560 nM.

Which IC50 does the source give for O=C(NCC1CCN(CC(=O)N2CCCC2C(F)(F)F)CC1)c1cc(C(F)(F)F)cc(C(F)(F)F)c1 (stereo not drawn) [Compound 107, N-((1-(2-oxo-2-(2-(trifluoromethyl)pyrrolidin-1-yl)ethyl)piperidin-4-yl)methyl)-3,5-bis(trifluoromethyl) benzamide] here?
The IC50 was 160 nM.

Which IC50 does the source give for O=C(NCC1CCN(CC(=O)N2CCC(C(F)(F)F)CC2)CC1)c1cc(C(F)(F)F)cc(C(F)(F)F)c1 [Compound 108, N-((1-(2-oxo-2-(4-(trifluoromethyl)piperidin-1-yl)ethyl)piperidin-4-yl)methyl)-3,5-bis(trifluoromethyl) benzamide] here?
Its IC50 is 250 nM.

Which IC50 does the source give for O=C(CC1CCN(C(=O)C2(O)CCNCC2)CC1)Nc1cc(C(F)(F)F)cc(C(F)(F)F)c1 [Compound 157, N-(3,5-bis(trifluoromethyl)phenyl)-2-(1-(4-hydroxypiperidine-4-carbonyl)piperidin-4-yl)acetamide] here?
The IC50 was > 10000 nM.

For O=C(NCC1CCN(C(=O)CN2CC[C@@H](O)C2)CC1)c1cc(C(F)(F)F)cc(C(F)(F)F)c1 [Compound 263, (R)-N-((1-(2-(3-hydroxypyrrolidin-1-yl)acetyl)piperidin-4-yl)methyl)-3,5-bis(trifluoromethyl)benzamide], which IC50 is on record?
The IC50 was > 10000 nM.
